Laboratory results from patent US12606572B2, “Substituted heterocycles and uses thereof” (Kumquat Biosciences Inc., priority 2023, dated 2026).

Key:
KRAS WT = target: T1, KRAS WT (Homo sapiens, UniProt P01116); experiment: HTRF assay, interaction of GST-tagged K-Ras with His-tagged hSOS1 (KRAS wildtype); format: biochemical; settings: <500 nM, read-out: Inhibition of KRAS WT (IC50)
T1 construct: made in house; host or cells: E. coli BL21 (DE3)
Description: (§1) This assay can be also used to assess a selective inhibition or reduction of signaling output of a mutant Ras protein relative to a wildtype, or relative to a different mutant Ras protein. For example, the equilibrium interaction of wildtype KRAS or K-Ras mutant (e.g., wildtype or a mutant thereof) with SOS1 (e.g., hSOS1) can be assessed as a proxy or an indication for the ability of a subject compound to bind and inhibit Ras protein. The HTRF assay detects from (i) a fluorescence resonance energy transfer (FRET) donor (e.g., antiGST-Europium) that is bound to GST-tagged K-Ras mutant to (ii) a FRET acceptor (e.g., anti-6His-XL665) bound to a His-tagged hSOS1.
(§2) The assay buffer can contain ˜5 mM HEPES pH 7.4, ˜150 mM NaCl, ˜1 mM DTT, 0.05% BSA and 0.0025% (v/v) Igepal. A Ras working solution is prepared in an assay buffer containing typically a suitable amount of the protein construct (e.g., GST-tagged K-Ras mutant) and the FRET donor (e.g., antiGST-Eu(K) from Cisbio, France). A SOS1 working solution is prepared in an assay buffer containing suitable amount of the protein construct (e.g., His-hSOS1) and the FRET acceptor (e.g., anti-6His-XL665 from Cisbio, France). A suitable amount of the protein construct will depend on the range of activity or range of IC50 values being detected or under investigation. For detecting an IC50 within a range of 500 nM, the protein constructs of the same range of molarity can be utilized.
(§3) A fixed volume of DMSO with or without test compound is transferred into a 384-well plate. Ras working solution is added to all wells of the test plate. SOS1 working solution is added to all wells except for those that are subsequently filled with inhibitor control solution. Upon incubation for about 10 minutes or longer, the fluorescence is measured with a M1000Pro plate reader (Tecan) using HTRF detection (excitation 337 nm, emission 1: 620 nm, emission 2: 665 nm). Compounds are tested in duplicate at different concentrations (for example, 10 μM, 2.5 μM, 0.63 μM, 0.16 μM, 0.04 μM, 0.01 μM test compound). The ratiometric data (i.e., emission 2 divided by emission 1) is used to calculate IC50 values against Ras using GraphPad Prism (GraphPad software). Signaling output measured in terms of IC50 values can be obtained and a ratio of IC50 against one mutant relative to another mutant can be calculated. For instance, a selective reduction of K-Ras G12S signaling output can be evidenced by a ratio greater than one. In particular, a selective reduction of K-Ras G12S signaling relative to K-Ras WT signaling is evidenced if the ratio of IC50 (against K-Ras WT) to IC50 (against K-Ras G12S) is greater than 1.

KRAS G12S = target: T2, KRAS G12S (Homo sapiens, UniProt P01116, G12S); experiment: HTRF assay, interaction of GST-tagged K-Ras with His-tagged hSOS1 (KRAS G12S); format: biochemical; settings: <500 nM, read-out: Inhibition of KRAS G12S (IC50)
T2 construct: made in house; host or cells: E. coli BL21 (DE3)
Description: as §1, §2, §3

T1 sequence (P01116 1-188 isoform P01116-2): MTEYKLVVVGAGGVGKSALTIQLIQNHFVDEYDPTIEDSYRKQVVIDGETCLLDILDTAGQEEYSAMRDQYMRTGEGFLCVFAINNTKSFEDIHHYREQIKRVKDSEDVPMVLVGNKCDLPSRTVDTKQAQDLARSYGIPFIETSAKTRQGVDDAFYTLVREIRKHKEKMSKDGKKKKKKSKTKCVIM
T2 sequence (P01116 1-188 isoform P01116-2 G12S): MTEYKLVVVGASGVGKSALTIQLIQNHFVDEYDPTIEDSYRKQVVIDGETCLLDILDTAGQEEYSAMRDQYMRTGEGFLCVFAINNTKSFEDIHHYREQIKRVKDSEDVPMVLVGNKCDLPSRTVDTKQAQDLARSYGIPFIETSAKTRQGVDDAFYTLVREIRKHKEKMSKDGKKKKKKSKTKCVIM

Structure (SMILES) | IC50 (KRAS WT) [nM] | IC50 (KRAS G12S) [nM]
C/C(C#N)=C\C(=O)N1CC(CN2CCOc3c(Cl)c(-c4ccc(F)c5sc(N)c(C#N)c45)c(F)c4nc(OC[C@@]56CCCN5C[C@H](F)C6)nc2c34)C1 [Compound 439, 2-amino-4-(8-chloro-4-((1-((E)-3-cyanobut-2-enoyl)azetidin-3-yl)methyl)-10-fluoro-2-(((2R,7aS)-2-fluorotetrahydro-1H-pyrrolizin-7a(5H)-yl)methoxy)-5,6-dihydro-4H-[1,4]oxazepino[5,6,7-de]quinazolin-9-yl)-7-fluorobenzo [b]thiophene-3-carbonitrile] | < 500 | < 500
COCC1([C@@H]2[C@H](CN3CCOc4c(Cl)c(-c5ccc(F)c6sc(N)c(C#N)c56)c(F)c5nc(OC[C@@]67CCCN6C[C@H](F)C7)nc3c45)CN2C(=O)n2cnc(C)c2)CC1 [Compound 477, 2-amino-4-(8-chloro-10-fluoro-2-(((2R,7aS)-2-fluorotetrahydro-1H-pyrrolizin-7a(5H)-yl)methoxy)-4-(((2S,3R)-2-(1-(methoxymethyl)cyclopropyl)-1-(4-methyl-1H-imidazole-1-carbonyl)azetidin-3-yl)methyl)-5,6-dihydro-4H-[1,4]oxazepino[5,6,7-de]quinazolin-9-yl)-7-fluorobenzo [b]thiophene-3-carbonitrile] | < 500 | < 500
N#CCC1([C@@H]2[C@H](CN3CCOc4c(Cl)c(-c5ccc(F)c6sc(N)c(C#N)c56)c(F)c5nc(OC[C@@]67CCCN6C[C@H](F)C7)nc3c45)CN2C(=O)n2ccnc2)CC1 [Compound 442, 2-amino-4-(8-chloro-4-(((2S,3R)-2-(1-(cyanomethyl)cyclopropyl)-1-(1H-imidazole-1-carbonyl)azetidin-3-yl)methyl)-10-fluoro-2-(((2R,7aS)-2-fluorotetrahydro-1H-pyrrolizin-7a(5H)-yl)methoxy)-5,6-dihydro-4H-[1,4]oxazepino [5,6,7-de]quinazolin-9-yl)-7-fluorobenzo[b]thiophene-3-carbonitrile] | < 500 | < 500
CC(C)[C@@H]1[C@H](CN2CCOc3c(Cl)c(-c4ccc(F)c5sc(N)c(C#N)c45)c(F)c4nc(OC[C@@]56CCCN5C[C@H](F)C6)nc2c34)CN1C(=O)n1cnc(F)n1 (single isomer, unassigned) [Compound 408] | < 500 | < 500
Cc1c(C#N)ncn1C(=O)N1C[C@@H](CN2CCOc3c(Cl)c(-c4ccc(F)c5sc(N)c(C#N)c45)c(F)c4nc(OC[C@@]56CCCN5C[C@H](F)C6)nc2c34)[C@H]1C1(C)CC1 (single isomer, unassigned) [Compound 452] | < 500 | < 500
CC(C)[C@@H]1[C@H](CN2CCOc3c(Cl)c(-c4ccc(F)c5sc(N)c(C#N)c45)c(F)c4nc(OC[C@@]56CCCN5C[C@H](F)C6)nc2c34)CN1C(=O)n1cnc(F)n1 [Compound 471, 2-amino-4-(8-chloro-10-fluoro-4-(((2R,3R)-1-(3-fluoro-1H-1,2,4-triazole-1-carbonyl)-2-isopropylazetidin-3-yl)methyl)-2-(((2R,7aS)-2-fluorotetrahydro-1H-pyrrolizin-7a (5H)-yl)methoxy)-5,6-dihydro-4H-[1,4]oxazepino[5,6,7-de]quinazolin-9-yl)-7-fluorobenzo[b]thiophene-3-carbonitrile] | < 500 | < 500
Cc1cn(C(=O)N2CC[C@@H](N3C[C@H](C)Oc4nc(-c5cc(N)c(F)c(C)c5C(F)(F)F)c(F)c5nc(OC[C@@]67CCCN6C[C@H](F)C7)nc3c45)[C@H]2C)c(C)n1 [Compound 430, ((2R,3R)-3-((S)-5-(5-amino-4-fluoro-3-methyl-2-(trifluoromethyl)phenyl)-4-fluoro-2-(((2R,7aS)-2-fluorotetrahydro-1H-pyrrolizin-7a(5H)-yl)methoxy)-8-methyl-8,9-dihydro-10H-7-oxa-1,3,6,10-tetraazacyclohepta [de]naphthalen-10-yl)-2-methylpyrrolidin-1-yl)(2,4-dimethyl-1H-imidazol-1-yl)methanone] | < 500 | < 500
N#Cc1c(N)sc2c(F)ccc(-c3c(Cl)c4c5c(nc(OC[C@@]67CCCN6C[C@H](F)C7)nc5c3F)N(CC3(O)CN(C(=O)n5ccnc5)C3)CCO4)c12 [Compound 463, 2-amino-4-(8-chloro-10-fluoro-2-(((2R,7aS)-2-fluorotetrahydro-1H-pyrrolizin-7a(5H)-yl)methoxy)-4-((3-hydroxy-1-(1H-imidazole-1-carbonyl)azetidin-3-yl)methyl)-5,6-dihydro-4H-[1,4]oxazepino [5,6,7-de]quinazolin-9-yl)-7-fluorobenzo[b]thiophene-3-carbonitrile] | < 500 | < 500
CC#CC(=O)N1CC(CN2CCOc3c(Cl)c(-c4ccc(F)c5sc(N)c(C#N)c45)c(F)c4nc(OC[C@@]56CCCN5C[C@H](F)C6)nc2c34)C1 [Compound 456, 2-amino-4-(4-((1-(but-2-ynoyl)azetidin-3-yl)methyl)-8-chloro-10-fluoro-2-(((2R,7aS)-2-fluorotetrahydro-1H-pyrrolizin-7a (5H)-yl)methoxy)-5,6-dihydro-4H-[1,4]oxazepino[5,6,7-de]quinazolin-9-yl)-7-fluorobenzo[b]thiophene-3-carbonitrile] | < 500 | < 500
Cc1ncn(C(=O)N2C[C@@H](CN3CCOc4c(Cl)c(-c5ccc(F)c6sc(N)c(C#N)c56)c(F)c5nc(OC[C@@]67CCCN6C[C@H](F)C7)nc3c45)[C@H]2C2(C)CC2)c1C (single isomer, unassigned) [Compound 476] | < 500 | < 500
C[C@H](O)[C@H]1COc2c(Cl)c(-c3ccc(F)c4sc(N)c(C#N)c34)c(F)c3nc(OC[C@@]45CCCN4C[C@H](F)C5)nc(c23)N1CC1CN(C(=O)n2ccnc2)C1 [Compound 427, 4-((5R)-4-((1-(1H-imidazole-1-carbonyl)azetidin-3-yl)methyl)-8-chloro-10-fluoro-2-(((2R,7aS)-2-fluorotetrahydro-1H-pyrrolizin-7a(5H)-yl)methoxy)-5-((S)-1-hydroxyethyl)-5,6-dihydro-4H-[1,4]oxazepino [5,6,7-de]quinazolin-9-yl)-2-amino-7-fluorobenzo[b] thiophene-3-carbonitrile] | < 500 | < 500
Cc1cn(C(=O)N2CC[C@@H](N3C[C@H](C)Oc4c(Cl)c(-c5ccc(F)c6sc(N)c(C#N)c56)c(F)c5nc(OC[C@@]67CCCN6C[C@H](F)C7)nc3c45)[C@H]2C)c(C)n1 [Compound 464, 2-amino-4-((6S)-8-chloro-4-((2R,3R)-1-(2,4-dimethyl-1H-imidazole-1-carbonyl)-2-methylpyrrolidin-3-yl)-10-fluoro-2-(((2R,7aS)-2-fluorotetrahydro-1H-pyrrolizin-7a(5H)-yl)methoxy)-6-methyl-5,6-dihydro-4H-[1,4]oxazepino[5,6,7-de]quinazolin-9-yl)-7-fluorobenzo[b] thiophene-3-carbonitrile] | < 500 | < 500
C[C@@H]1[C@H](N2C[C@H](C)Oc3c(Cl)c(-c4ccc(F)c5sc(N)c(C#N)c45)c(F)c4nc(OC[C@@]56CCCN5C[C@H](F)C6)nc2c34)CCN1C(=O)n1cnc(Cl)n1 (atropisomer, axis not shown; (aS)) [Compound 407, 2-amino-4-((6S,9R)-8-chloro-4-((2R,3R)-1-(3-chloro-1H-1,2,4-triazole-1-carbonyl)-2-methylpyrrolidin-3-yl)-10-fluoro-2-(((2R,7aS)-2-fluorotetrahydro-1H-pyrrolizin-7a (5H)-yl)methoxy)-6-methyl-5,6-dihydro-4H-[1,4]oxazepino[5,6,7-de]quinazolin-9-yl)-7-fluorobenzo[b]thiophene-3-carbonitrile] | < 500 | < 500
